According to US12594267B2, “Capsid inhibitors for the treatment of HIV” (Gilead Sciences, Inc., priority 2018, dated 2026):
Like-named read-outs stand apart in the source and are kept apart here.

Experiments:
HIV-1 clinical isolates = experiment: Antiviral activity against HIV-1 clinical isolates in PHA-stimulated human PBMCs; format: cell-based
Procedure: (§1) The antiretroviral activity of the compound of Formula (Ia) was tested against a panel of 22 HIV-1 clinical isolates of HIV-1 and two HIV-2 isolates in freshly isolated, PHA-stimulated human peripheral blood mononuclear cells (PBMCs). The HIV-1 isolates included representative strains from subtypes A, B, C, D, E, F, G, N, O, AE, and AG. Following a 7-day infection, virus production was determined by measuring reverse transcriptase activity in cell-free culture supernatants.

HIV-2 isolates = experiment: Antiviral activity against HIV-2 isolates in PHA-stimulated human PBMCs; format: cell-based; details: Human immunodeficiency virus 2, PBMC, 168 h, 7-day infection, RT activity readout, mean of triplicate
Procedure: as §1

WT HXB2D = experiment: Cytopathic antiviral assay in MT-2 cells, wild type HXB2D; format: cell-based, HIV-1; details: Human immunodeficiency virus 1, MT2, read-out: WT HXB2D EC50, MT-2 cells, mean ± s.d. of three experiments in triplicate
Procedure: (§2) The antiviral activity of the compound of Formula (a) was tested against a panel of known HIV-1 mutants resistant to HIV PIs (ATV and DRV), NRTIs (TFV and FTC), NNRTIs (RPV and EFV) or INSTIs (RAL, EVG and DTG) using a cytopathic antiviral assay in MT-2 cells. The compound of Formula (Ia) was fully active against all tested mutants resistant to PIs (Table 11), NRTIs (Table 12), NNRTIs (Table 13) or INSTIs (Table 14).

PI-resistant viruses = experiment: Cytopathic antiviral assay in MT-2 cells, PI-resistant viruses; format: cell-based, HIV-1; details: Mutant/WT (HXB2D) EC50 ratio, mean ± s.d. of three experiments
Procedure: as §2

NNRTI-resistant viruses = experiment: Cytopathic antiviral assay in MT-2 cells, NNRTI-resistant viruses; format: cell-based, HIV-1; details: Mutant/WT (HXB2D) EC50 ratio, mean ± s.d. of three experiments
Procedure: as §2

NRTI-resistant viruses = format: cell-based, HIV-1; details: Mutant/WT (LAI) EC50 ratio, MT-2 cells, mean ± s.d. of three experiments
Procedure: The antiviral activity of the compound of Formula (a) was tested against a panel of known HIV-1 mutants resistant to HIV PIs (ATV and DRV), NRTIs (TFV and FTC), NNRTIs (RPV and EFV) or INSTIs (RAL, EVG and DTG) using a cytopathic antiviral assay in MT-2 cells.

Cc1cn([C@H]2C[C@H](N=[N+]=[N-])[C@@H](CO)O2)c(=O)[nH]c1=O [AZT, zidovudine] showed an EC50 (HIV-1 clinical isolates; Human immunodeficiency virus 1, BAL, PBMC, 168 h, read-out: EC50 in human PBMCs, HIV-1 subtype B isolate Ba-L, 7-day infection, RT activity readout, mean of triplicate) of 43.2 nM, an EC50 (HIV-1 clinical isolates; Human immunodeficiency virus 1, PBMC, 168 h, read-out: EC50 in human PBMCs, HIV-1 CRF01_AE isolate 90TH_CM235, 7-day infection, RT activity readout, mean of triplicate) of 10.7 nM and an EC50 (HIV-1 clinical isolates; Human immunodeficiency virus 1, PBMC, 168 h, read-out: EC50 in human PBMCs, HIV-1 CRF02_AG isolate 01CM0008BBY, 7-day infection, RT activity readout, mean of triplicate) of 8.21 nM. For the same molecule, the EC50 (HIV-1 clinical isolates; Human immunodeficiency virus 1, PBMC, 168 h, read-out: EC50 in human PBMCs, HIV-1 CRF02_AG isolate 91DJ263, 7-day infection, RT activity readout, mean of triplicate) was 34.9 nM, the EC50 (HIV-1 clinical isolates; Human immunodeficiency virus 1, PBMC, 168 h, read-out: EC50 in human PBMCs, HIV-1 Group N isolate YBF30, 7-day infection, RT activity readout, mean of triplicate) was 8.96 nM and the EC50 (HIV-1 clinical isolates; Human immunodeficiency virus 1, PBMC, 168 h, read-out: EC50 in human PBMCs, HIV-1 Group O isolate BCF01, 7-day infection, RT activity readout, mean of triplicate) was 10.5 nM. It also gave an EC50 (HIV-1 clinical isolates; Human immunodeficiency virus 1, PBMC, 168 h, read-out: EC50 in human PBMCs, HIV-1 subtype A isolate 92UG031, 7-day infection, RT activity readout, mean of triplicate) of 51.6 nM, an EC50 (HIV-1 clinical isolates; Human immunodeficiency virus 1, PBMC, 168 h, read-out: EC50 in human PBMCs, HIV-1 subtype A isolate 92UG037, 7-day infection, RT activity readout, mean of triplicate) of 21.7 nM and an EC50 (HIV-1 clinical isolates; Human immunodeficiency virus 1, PBMC, 168 h, read-out: EC50 in human PBMCs, HIV-1 subtype B isolate 89BZ_167, 7-day infection, RT activity readout, mean of triplicate) of 10.1 nM. It also gave an EC50 (HIV-1 clinical isolates; Human immunodeficiency virus 1, PBMC, 168 h, read-out: EC50 in human PBMCs, HIV-1 subtype B isolate 90US_873, 7-day infection, RT activity readout, mean of triplicate) of 13.2 nM, an EC50 (HIV-1 clinical isolates; Human immunodeficiency virus 1, PBMC, 168 h, read-out: EC50 in human PBMCs, HIV-1 subtype B isolate 91US001, 7-day infection, RT activity readout, mean of triplicate) of 20.3 nM and an EC50 (HIV-1 clinical isolates; Human immunodeficiency virus 1, PBMC, 168 h, read-out: EC50 in human PBMCs, HIV-1 subtype B isolate 91US004, 7-day infection, RT activity readout, mean of triplicate) of 19.7 nM. For the same molecule, the EC50 (HIV-1 clinical isolates; Human immunodeficiency virus 1, PBMC, 168 h, read-out: EC50 in human PBMCs, HIV-1 subtype B isolate 96TH_NP1538, 7-day infection, RT activity readout, mean of triplicate) was 4.1 nM, the EC50 (HIV-1 clinical isolates; Human immunodeficiency virus 1, PBMC, 168 h, read-out: EC50 in human PBMCs, HIV-1 subtype B isolate JR-CSF, 7-day infection, RT activity readout, mean of triplicate) was 4.53 nM and the EC50 (HIV-1 clinical isolates; Human immunodeficiency virus 1, PBMC, 168 h, read-out: EC50 in human PBMCs, HIV-1 subtype C isolate 92BR025, 7-day infection, RT activity readout, mean of triplicate) was 16.9 nM. For the same molecule, the EC50 (HIV-1 clinical isolates; Human immunodeficiency virus 1, PBMC, 168 h, read-out: EC50 in human PBMCs, HIV-1 subtype C isolate 98US_MSC5016, 7-day infection, RT activity readout, mean of triplicate) was 37.8 nM, the EC50 (HIV-1 clinical isolates; Human immunodeficiency virus 1, PBMC, 168 h, read-out: EC50 in human PBMCs, HIV-1 subtype D isolate 92UG001, 7-day infection, RT activity readout, mean of triplicate) was 7.29 nM and the EC50 (HIV-1 clinical isolates; Human immunodeficiency virus 1, PBMC, 168 h, read-out: EC50 in human PBMCs, HIV-1 subtype D isolate 98UG_57128, 7-day infection, RT activity readout, mean of triplicate) was 6.61 nM. The EC50 (HIV-1 clinical isolates; Human immunodeficiency virus 1, PBMC, 168 h, read-out: EC50 in human PBMCs, HIV-1 subtype E isolate CMU02, 7-day infection, RT activity readout, mean of triplicate) was 8.13 nM, the EC50 (HIV-1 clinical isolates; Human immunodeficiency virus 1, PBMC, 168 h, read-out: EC50 in human PBMCs, HIV-1 subtype E isolate CMU08, 7-day infection, RT activity readout, mean of triplicate) was 34.1 nM and the EC50 (HIV-1 clinical isolates; Human immunodeficiency virus 1, PBMC, 168 h, read-out: EC50 in human PBMCs, HIV-1 subtype F isolate 93BR020, 7-day infection, RT activity readout, mean of triplicate) was 25.1 nM. The EC50 (HIV-1 clinical isolates; Human immunodeficiency virus 1, PBMC, 168 h, read-out: EC50 in human PBMCs, HIV-1 subtype G isolate JV1083, 7-day infection, RT activity readout, mean of triplicate) was 20.5 nM, the EC50 (HIV-1 clinical isolates; Human immunodeficiency virus 1, PBMC, read-out: HIV-1 EC50 Mean ± s.d., mean over the 22 HIV-1 clinical isolates, human PBMCs) was 19 ± 13.5 nM and the EC50 (HIV-1 clinical isolates; Human immunodeficiency virus 1, PBMC, read-out: HIV-1 EC50 Median, median over the 22 HIV-1 clinical isolates, human PBMCs) was 15.1 nM. It also gave an EC50 (HIV-1 clinical isolates; Human immunodeficiency virus 1, PBMC, read-out: HIV-1 EC50 Range, range over the 22 HIV-1 clinical isolates, human PBMCs) of 4.1 to 51.6 nM, an EC50 (HIV-2 isolates; HIV-2 isolate CBL-20) of 14.3 nM and an EC50 (HIV-2 isolates; HIV-2 isolate CDC310319) of 28.8 nM.
For CC(C)CN(C[C@@H](O)[C@H](Cc1ccccc1)NC(=O)O[C@H]1CO[C@H]2OCC[C@H]21)S(=O)(=O)c1ccc(N)cc1 [DRV, darunavir], the EC50 (WT HXB2D; PI-resistance panel (Table 11)) was 2.82 ± 0.47 nM, the “EC50 Fold-Change” value (PI-resistant viruses; G48V/V82A/L90M) was 0.5 ± 0.2 and the “EC50 Fold-Change” value (PI-resistant viruses; G48V/V82S) was 0.3 ± 0.1. For the same molecule, the “EC50 Fold-Change” value (PI-resistant viruses; I50V) was 31.6 ± 22.8 and the “EC50 Fold-Change” value (PI-resistant viruses; I84V/L90M) was 1.9 ± 0.9.
With Cc1cc(/C=C/C#N)cc(C)c1Nc1ccnc(Nc2ccc(C#N)cc2)n1 [RPV, rilpivirine] the “EC50 Fold-Change” value (NNRTI-resistant viruses; K103N) was 0.7 ± 0.3, the “EC50 Fold-Change” value (NNRTI-resistant viruses; K103N/Y181C) was 3.2 ± 1.4 and the “EC50 Fold-Change” value (NNRTI-resistant viruses; L100I/K103N) was 7.8 ± 2.6. For the same molecule, the “EC50 Fold-Change” value (NNRTI-resistant viruses; Y181C) was 5.9 ± 4.3, the “EC50 Fold-Change” value (NNRTI-resistant viruses; Y188L) was 6.9 ± 1.3 and the EC50 (WT HXB2D; NNRTI-resistance panel (Table 13)) was 0.93 ± 0.23 nM.
C[C@H](Cn1cnc2c(N)ncnc21)OCP(=O)(O)O [TFV, tenofovir] was tested, and the “EC50 Fold-Change” value (NRTI-resistant viruses; 6TAMs) was 3.0 ± 1.1, the “EC50 Fold-Change” value (NRTI-resistant viruses; K65R) was 2.4 ± 1.0 and the “EC50 Fold-Change” value (NRTI-resistant viruses; M184V) was 0.9 ± 1.0.
